ChEMBL document CHEMBL4000252, “Discovery of N-(2-aminoethyl)-N-benzyloxyphenyl benzamides: New potent Trypanosoma brucei inhibitors” (Bioorg Med Chem, 2017)
Activity calls are given as the source filed them. No cut-off for these calls is given here.

Legend:
[1] = system: Trypanosoma brucei brucei; test: Antiparasitic activity against Trypanosoma brucei brucei BF427 assessed as growth inhibition after 48 hrs by Alamar blue assay; assay type: functional; details: BF427, 48 h
L6 = test: Cytotoxicity against rat L6 cells assessed as growth inhibition after 48 hrs by Alamar blue assay; assay type: cell-based; details: l6, 48 h
[2] = Cytotoxicity against human CRL8155 cells assessed as growth inhibition after 48 hrs by Alamar blue assay; assay type: cell-based; details: crl8155, 48 h
HepG2 = test: Cytotoxicity against human HepG2 cells assessed as growth inhibition after 48 hrs by Alamar blue assay; assay type: cell-based; details: hepg2, 48 h
Cytochrome P450 3A4 = Cytochrome P450 3A4 (Homo sapiens, UniProt P08684); test: Inhibition of human CYP3A4; assay type: ADME
Liver [3] = test: Half life in human liver microsomes at 1.5 uM by LC-MS analysis; assay type: ADME, microsome
[4] = Ratio of drug level in brain to plasma in mouse at 5 mg/kg, ip after 1 hr by LC-MS analysis; assay type: ADME, organism-based
[5] = Cmax in mouse at 50 mg/kg, po by LC-MS analysis; assay type: ADME, organism-based; parameters: dose 50 mg/kg, route oral; details: in vivo
[6] = AUC (0 to 8 hrs) in mouse at 50 mg/kg, po by LC-MS analysis; assay type: ADME, organism-based; parameters: dose 50 mg/kg, time < 8 hr, route oral; details: in vivo
[7] = system: Trypanosoma brucei rhodesiense; test: Antiparasitic activity against Trypanosoma brucei rhodesiense STIB900 infected in Swiss-Webster mouse assessed as cure rate at 50 mg/kg, bid administered via oral gavage from day 2 to 5 post infection measured after 60 days by microscopic method relative to control; assay type: functional
Liver [8] = test: Half life in mouse liver microsomes at 1.5 uM by LC-MS analysis; assay type: ADME, microsome
[9] = system: Trypanosoma brucei brucei; test: Antiparasitic activity against Trypanosoma brucei brucei TREU667 infected in mouse assessed as decrease in parasitemia at 50 mg/kg, bid administered via oral gavage on day 21 to 34 post infection measured on day 34 by microscopic method; assay type: functional, organism-based
[10] = system: Trypanosoma brucei brucei; test: Antiparasitic activity against Trypanosoma brucei brucei TREU667 infected in mouse assessed as decrease in parasitemia at 50 mg/kg, bid administered via oral gavage on day 21 to 34 post infection measured on day 35 by microscopic method; assay type: functional, organism-based
[11] = system: Trypanosoma brucei brucei; test: Antiparasitic activity against Trypanosoma brucei brucei TREU667 infected in mouse assessed as decrease in parasitemia at 50 mg/kg, bid administered via oral gavage on day 21 to 34 post infection measured on day 36 by microscopic method; assay type: functional, organism-based
[12] = system: Trypanosoma brucei brucei; test: Antiparasitic activity against Trypanosoma brucei brucei TREU667 infected in mouse assessed as decrease in parasitemia at 50 mg/kg, bid administered via oral gavage on day 21 to 34 post infection measured on day 46 to 49 by microscopic method; assay type: functional, organism-based
[13] = system: Trypanosoma brucei brucei; test: Antiparasitic activity against Trypanosoma brucei brucei TREU667 infected in mouse assessed as decrease in parasitemia at 50 mg/kg, bid administered via oral gavage on day 21 to 34 post infection measured on day 41 to 42 by microscopic method; assay type: functional, organism-based

Cytochrome P450 3A4, sequence (P08684 whole entry): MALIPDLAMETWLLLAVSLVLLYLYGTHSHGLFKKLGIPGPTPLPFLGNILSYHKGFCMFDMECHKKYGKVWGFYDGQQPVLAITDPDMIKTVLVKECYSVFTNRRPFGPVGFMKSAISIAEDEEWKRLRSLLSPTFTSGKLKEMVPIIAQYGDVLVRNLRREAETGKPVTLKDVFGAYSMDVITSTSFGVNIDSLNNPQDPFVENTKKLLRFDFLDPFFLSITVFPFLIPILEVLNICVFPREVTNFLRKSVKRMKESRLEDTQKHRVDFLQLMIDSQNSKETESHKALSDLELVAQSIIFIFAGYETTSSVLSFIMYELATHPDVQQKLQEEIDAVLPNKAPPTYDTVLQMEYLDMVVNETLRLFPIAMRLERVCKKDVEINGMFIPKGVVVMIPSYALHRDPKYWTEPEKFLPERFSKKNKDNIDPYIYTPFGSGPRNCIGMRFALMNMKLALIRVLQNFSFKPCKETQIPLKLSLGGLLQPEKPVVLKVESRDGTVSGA

| SMILES | EC50 [1] [nM] | CC50 [2] [nM] | other results |
| --- | --- | --- | --- |
| COc1cc(N(CCN)C(=O)c2ccc(Cl)cc2Cl)ccc1Cl | 4520 | – | – |
| O=C(c1ccc(Cl)cc1Cl)N(Cc1ncc[nH]1)c1ccc(Cl)cc1 | > 10000 | – | – |
| CC(C)c1ccc(COc2ccc(N(CCN)C(=O)c3ccccc3C(F)(F)F)cc2)cc1 | 3 | 2220 | CC50 (HepG2): 3990 nM |
| O=C(c1ccc(Cl)cc1Cl)N(CCN1CCOCC1)c1ccc(Cl)cc1 | > 10000 | – | – |
| CC(N)CN(C(=O)c1ccc(Cl)cc1Cl)c1ccc(Cl)cc1 (stereo unspecified) | 1050 | – | – |
| COc1ccc(C(=O)N(CCN)c2ccc(Cl)cc2)cc1 | > 10000 | – | – |
| Cc1cc(C)cc(COc2ccc(N(CCN)C(=O)c3cccnc3C(F)(F)F)cc2)c1 | 3 | 4740 | CC50 (HepG2): 6460 nM |
| NCCN(C(=O)c1ccc(Cl)cc1Cl)c1ccc(Cl)c(Cl)c1 | 1680 | – | – |
| NCCN(C(=O)c1ccc(Cl)cc1Cl)c1ccc(-c2ccccc2)cc1 | 1830 | – | – |
| NCCN(C(=O)c1cccnc1C(F)(F)F)c1ccc(OCc2ccc(Cl)cc2)cc1 | 3 | 8010 | CC50 (HepG2): 10200 nM |
| NCCN(C(=O)c1cccnc1C(F)(F)F)c1ccc(Cl)cc1 | 590 | – | – |
| Cc1cc(C)cc(COc2ccc(N(CCN)C(=O)c3ccccc3C(F)(F)F)cc2)c1.Cl | 10 | 2940 | CC50 (HepG2): 3940 nM; t1/2 (Liver [3]): > 1 h; BPR [4]: 0.96; Cmax [5]: 1.01 µM; AUC(0-t) at 8 h [6]: 6.51 µM·h; Activity [7]: 33% |
| Cl.NCCN(C(=O)c1ccc(Cl)cc1Cl)c1ccc(F)cc1 | – | 30000 | CC50 (HepG2): 40000 nM; IC50 (Cytochrome P450 3A4): 74 nM; t1/2 (Liver [8]): > 1 h |
| NCCN(C(=O)c1ccc(Cl)cc1Cl)c1ccc(C(F)(F)F)cc1 | 1050 | – | CC50 (L6): 13200 nM |
| CC(C)(C)c1ccc(COc2ccc(N(CCN)C(=O)c3ccc(Cl)cc3Cl)cc2)cc1 | 5 | 2120 | CC50 (HepG2): 3830 nM |
| CC(C)c1ccc(COc2ccc(N(CCN)C(=O)c3ccccc3[N+](=O)[O-])cc2)cc1 | 1 | 3030 | – |
| Cl.NCCN(C(=O)c1ccc(F)cc1C(F)(F)F)c1ccc(OCc2ccc(Cl)cc2)cc1 | 7 | 3670 | CC50 (HepG2): 7530 nM; IC50 (Cytochrome P450 3A4): 10 nM; t1/2 (Liver [3]): > 1 h; t1/2 (Liver [8]): > 1 h; BPR [4]: 0.38; Cmax [5]: 4.39 µM; AUC(0-t) at 8 h [6]: 26 µM·h; Activity [7]: 67 - 80%; Activity [9]: Active; Activity [10]: Active; Activity [11]: Active; Activity [12]: inactive |
| NCCN(C(=O)c1ccc(Cl)cc1Cl)c1cccc(Oc2ccc(Cl)cc2)c1 | 2130 | – | – |
| CCc1ccc(COc2ccc(N(CCN)C(=O)c3ccc(Cl)cc3Cl)cc2)cc1 | 15 | 2590 | CC50 (HepG2): 5600 nM |
| Cc1cc(C)cc(COc2ccc(N(CCN)C(=O)c3ccc(F)cc3C(F)(F)F)cc2)c1 | 5 | 2240 | CC50 (HepG2): 4530 nM |
| NCCN(C(=O)c1ccccc1)c1ccc(Cl)cc1 | 13000 | – | – |
| CC(=O)NCCN(C(=O)c1ccc(Cl)cc1Cl)c1ccc(Cl)cc1 | > 10000 | – | – |
| N#CCN(C(=O)c1ccc(Cl)cc1Cl)c1ccc(Cl)cc1 | > 10000 | – | – |

| SMILES | EC50 [1] [nM] | CC50 [2] [nM] | other results |
| --- | --- | --- | --- |
| NCCN(C(=O)c1ccc(Cl)cc1Cl)c1ccc(Oc2ccc(Cl)cc2)cc1 | 170 | – | – |
| CC(CN)N(C(=O)c1ccc(Cl)cc1Cl)c1ccc(Cl)cc1 (stereo unspecified) | 3560 | – | – |
| NCCN(C(=O)c1ccc(F)cc1)c1ccc(Cl)cc1 | 4010 | – | – |
| Cc1ccc(C(=O)N(CCN)c2ccc(Cl)cc2)cc1 | 7000 | – | – |
| O=C(c1ccc(Cl)cc1Cl)N(c1ccc(Cl)cc1)C1CCNC1 (stereo unspecified) | 4470 | – | – |
| NCCN(C(=O)c1c(F)c(F)c(F)c(F)c1F)c1ccc(Cl)cc1 | 540 | – | – |
| O=C(c1ccc(Cl)cc1Cl)N(c1ccc(Cl)cc1)C1CCCNC1 (stereo unspecified) | > 10000 | – | – |
| Cc1cc(C)cc(COc2ccc(N(CCN)C(=O)c3ccc(Cl)cc3Cl)cc2)c1.Cl | 20 | 2450 | CC50 (HepG2): 4100 nM; IC50 (Cytochrome P450 3A4): 3 nM; t1/2 (Liver [3]): > 1 h; BPR [4]: 0.18; Cmax [5]: 5.9 µM; AUC(0-t) at 8 h [6]: 33.9 µM·h; Activity [7]: 33%; Activity [9]: Active; Activity [13]: inactive |
| O=C(c1ccc(Cl)cc1Cl)N(Cc1cccs1)c1ccc(Cl)cc1 | > 10000 | – | – |
| NCCN(C(=O)c1ccc(Cl)cc1Cl)c1ccc(F)c(Cl)c1 | 2720 | – | – |
| NCCN(C(=O)c1ccc(Cl)cc1Cl)c1ccc(Cl)cc1Cl | 510 | – | – |
| CC(C)c1ccc(COc2ccc(N(CCN)C(=O)c3ccc(F)cc3C(F)(F)F)cc2)cc1.Cl | 2 | 2830 | CC50 (HepG2): 3660 nM; t1/2 (Liver [3]): 0.867 h; BPR [4]: 0.22; Cmax [5]: 1.78 µM; AUC(0-t) at 8 h [6]: 11.1 µM·h; Activity [7]: 33% |
| O=C(c1ccc(Cl)cc1Cl)N(Cc1cnc[nH]1)c1ccc(Cl)cc1 | > 10000 | – | – |
| O=C(c1ccc(Cl)cc1Cl)N(c1ccc(Cl)cc1)c1cccnc1 | > 10000 | – | – |
| NCCN(C(=O)c1ccc(F)cc1C(F)(F)F)c1ccc(Cl)cc1 | 180 | 42300 | CC50 (HepG2): 37700 nM |
| NCCN(C(=O)c1ccc(Cl)cc1Cl)c1ccc(OCc2cccc(Cl)c2)cc1 | 43 | 2380 | CC50 (HepG2): 3780 nM |
| O=C(c1ccc(Cl)cc1Cl)N(Cc1ccco1)c1ccc(Cl)cc1 | > 10000 | – | – |
| NCCN(C(=O)c1ccc(Cl)cc1Cl)c1ccc(Oc2cccc(Cl)c2)cc1 | 280 | – | – |
| NCCN(C(=O)c1cccnc1Cl)c1ccc(OCc2ccc(Cl)cc2)cc1 | 30 | 11500 | CC50 (HepG2): 15200 nM |
| CC(C)c1ccc(COc2ccc(N(CCN)C(=O)c3ccccc3Br)cc2)cc1 | 1 | 1910 | – |
| COc1ccc(C(=O)N(CCN)c2ccc(Cl)cc2)c(OC)c1 | 4820 | – | – |
| NCCN(C(=O)c1ccc(Cl)cc1Cl)c1ccc(Oc2ccccc2Cl)cc1 | 3600 | – | – |

Second part, led by results:

| EC50 [1] [nM] | SMILES | CC50 [2] [nM] | other results |
| --- | --- | --- | --- |
| > 10000 | NC(=O)CCN(C(=O)c1ccc(Cl)cc1Cl)c1ccc(Cl)cc1 | – | – |
| 600 | NCCN(C(=O)c1cc(Cl)ccc1Cl)c1ccc(Cl)cc1 | – | – |
| 3900 | NCCN(C(=O)c1ccccc1F)c1ccc(Cl)cc1 | – | CC50 (L6): 104000 nM |
| 780 | NCCN(C(=O)c1c(Cl)cccc1Cl)c1ccc(Cl)cc1 | > 50000 | CC50 (HepG2): > 50000 nM |
| > 10000 | O=C(c1ccc(Cl)cc1Cl)N(CCO)c1ccc(Cl)cc1 | – | – |
| 1240 | NCCN(C(=O)c1ccc(F)cc1F)c1ccc(Cl)cc1 | – | – |
| 3890 | CC(C)c1ccc(N(CCN)C(=O)c2ccc(Cl)cc2Cl)cc1 | – | – |
| 310 | NCCN(C(=O)c1ccc(Cl)cc1Cl)c1ccc(Cl)cc1 | 12500 | CC50 (HepG2): 14200 nM; IC50 (Cytochrome P450 3A4): 70 nM |
| 1080 | NCCN(C(=O)c1cc(Cl)cc(Cl)c1)c1ccc(Cl)cc1 | – | – |
| 330 | NCCN(C(=O)c1ccc(Cl)cc1Cl)c1ccc(Br)cc1 | 11500 | CC50 (HepG2): 11000 nM |
| 440 | NCCN(C(=O)c1ccccc1Cl)c1ccc(Cl)cc1 | > 50000 | CC50 (HepG2): > 50000 nM |
| 2900 | NCCCN(C(=O)c1ccc(Cl)cc1Cl)c1ccc(Cl)cc1 | – | – |
| > 10000 | NCCN(C(=O)c1ccc(Cl)cc1Cl)c1ccc(N)cc1 | 11000 | – |
| 2900 | NCCN(C(=O)c1ccc(Cl)c([N+](=O)[O-])c1)c1ccc(Cl)cc1 | – | – |
| 2510 | COc1ccccc1C(=O)N(CCN)c1ccc(Cl)cc1 | – | – |
| 3050 | NCCN(C(=O)c1ccc(Cl)cc1Cl)c1cccc(Cl)c1 | – | – |
| 1200 | NCCN(C(=O)c1cc([N+](=O)[O-])ccc1Cl)c1ccc(Cl)cc1 | – | – |
| 3120 | NCCN(C(=O)c1ccc(Cl)cc1)c1ccc(Cl)cc1 | – | – |
| 330 | NCCN(C(=O)c1ccccc1C(F)(F)F)c1ccc(Cl)cc1 | – | – |
| 1520 | Cc1ccc(N(CCN)C(=O)c2ccc(Cl)cc2Cl)cc1 | 24900 | – |
| 310 | NCCN(C(=O)c1cccc(Cl)c1Cl)c1ccc(Cl)cc1 | – | – |
| 520 | Cc1ccccc1C(=O)N(CCN)c1ccc(Cl)cc1 | – | – |
| > 10000 | NCCN(C(=O)c1ccc(Cl)cc1Cl)c1ccc([N+](=O)[O-])cc1 | – | – |
| 1200 | NCCN(C(=O)c1cccc(Cl)c1)c1ccc(Cl)cc1 | – | – |
| > 10000 | CN(C)CCN(C(=O)c1ccc(Cl)cc1Cl)c1ccc(Cl)cc1 | – | – |
| > 6000 | COc1ccc(N(CCN)C(=O)c2ccc(Cl)cc2Cl)cc1 | – | CC50 (L6): 56100 nM |
| 1650 | CNCCN(C(=O)c1ccc(Cl)cc1Cl)c1ccc(Cl)cc1 | – | – |
| 230 | NCCN(C(=O)c1c(Cl)cc(Cl)cc1Cl)c1ccc(Cl)cc1 | 8500 | CC50 (HepG2): 21500 nM |
| 970 | Cc1ccc(C(=O)N(CCN)c2ccc(Cl)cc2)c(C)c1 | – | – |
| 4030 | NCCN(C(=O)c1cccc(F)c1)c1ccc(Cl)cc1 | – | – |
